Reference: ChEMBL document CHEMBL1909294, “Translating clinical findings into knowledge in drug safety evaluation--drug induced liver injury prediction system (DILIps)” (PLoS Comput Biol, 2011)

What was measured:
[1] = tested on: Hepatotoxicity;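 for HepSE bilirubinemia: bilirubinemia hepatic side effect score drawn from the DILIps training data, a prediction system for drug-induced liver injury; call rule not given here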;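 for HepSE cholecystitis: Cholecystitis-related hepatic side effect score drawn from the DILIps (drug-induced liver injury prediction) training data set; call rule not given here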;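 for HepSE cholelithiasis: hepatic side effect score for cholelithiasis, drawn from the DILIps training data for predicting drug-induced liver injury; call rule not given here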;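 for HepSE elevated liver function tests: hepatic side effect score for raised liver function tests, as recorded in the DILIps training set used for predicting drug-induced liver injury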; for HepSE hepatic failure: call rule not given here;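 for HepSE hepatomegaly: hepatic side effect score for hepatomegaly, taken from the training set of the DILIps drug-induced liver injury prediction system; call rule not given here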;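 for HepSE jaundice: Jaundice-related hepatic side-effect score drawn from the training data of the DILIps (drug-induced liver injury prediction system); call rule not given here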
[2] = tested on: Hepatotoxicity; remark: listed apart in the source;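 for HepSE bilirubinemia: bilirubinemia hepatic side effect score drawn from the DILIps training data, a prediction system for drug-induced liver injury; call rule not given here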;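 for HepSE cholecystitis: Cholecystitis-related hepatic side effect score drawn from the DILIps (drug-induced liver injury prediction) training data set; call rule not given here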;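 for HepSE cholelithiasis: hepatic side effect score for cholelithiasis, drawn from the DILIps training data for predicting drug-induced liver injury; call rule not given here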; for HepSE hepatic failure: call rule not given here;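 for HepSE hepatomegaly: hepatic side effect score for hepatomegaly, taken from the training set of the DILIps drug-induced liver injury prediction system; call rule not given here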;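 for HepSE jaundice: Jaundice-related hepatic side-effect score drawn from the training data of the DILIps (drug-induced liver injury prediction system); call rule not given here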
[3] = tested on: Hepatotoxicity; remark: listed apart in the source;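 for HepSE bilirubinemia: bilirubinemia hepatic side effect score drawn from the DILIps training data, a prediction system for drug-induced liver injury; call rule not given here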;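 for HepSE cholecystitis: Cholecystitis-related hepatic side effect score drawn from the DILIps (drug-induced liver injury prediction) training data set; call rule not given here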;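 for HepSE cholelithiasis: hepatic side effect score for cholelithiasis, drawn from the DILIps training data for predicting drug-induced liver injury; call rule not given here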; for HepSE hepatic failure: call rule not given here;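 for HepSE hepatomegaly: hepatic side effect score for hepatomegaly, taken from the training set of the DILIps drug-induced liver injury prediction system; call rule not given here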;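 for HepSE jaundice: Jaundice-related hepatic side-effect score drawn from the training data of the DILIps (drug-induced liver injury prediction system); call rule not given here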
[4] = tested on: Hepatotoxicity; remark: listed apart in the source;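 for HepSE bilirubinemia: bilirubinemia hepatic side effect score drawn from the DILIps training data, a prediction system for drug-induced liver injury; call rule not given here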;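 for HepSE cholecystitis: Cholecystitis-related hepatic side effect score drawn from the DILIps (drug-induced liver injury prediction) training data set; call rule not given here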;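 for HepSE cholelithiasis: hepatic side effect score for cholelithiasis, drawn from the DILIps training data for predicting drug-induced liver injury; call rule not given here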; for HepSE hepatic failure: call rule not given here;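 for HepSE hepatomegaly: hepatic side effect score for hepatomegaly, taken from the training set of the DILIps drug-induced liver injury prediction system; call rule not given here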;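 for HepSE jaundice: Jaundice-related hepatic side-effect score drawn from the training data of the DILIps (drug-induced liver injury prediction system); call rule not given here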
[5] = tested on: Hepatotoxicity; remark: listed apart in the source; for HepSE hepatic failure: call rule not given here
[6] = tested on: Hepatotoxicity; remark: listed apart in the source; for HepSE hepatic failure: call rule not given here
[7] = tested on: Hepatotoxicity; remark: listed apart in the source
[8] = tested on: Hepatotoxicity; remark: listed apart in the source
[9] = tested on: Hepatotoxicity; remark: listed apart in the source
[10] = tested on: Hepatotoxicity; remark: listed apart in the source
[11] = tested on: Hepatotoxicity; remark: listed apart in the source
[12] = tested on: Hepatotoxicity; remark: listed apart in the source
[13] = tested on: Hepatotoxicity; remark: listed apart in the source
[14] = tested on: Hepatotoxicity; remark: listed apart in the source

| Compound | HepSE_jaundice [1] | HepSE_hepatic failure [2] | HepSE_cholelithiasis [3] | HepSE_bilirubinemia [4] | HepSE_cholecystitis [5] | HepSE_hepatomegaly [6] | HepSE_elevated liver function tests [7] | HepSE_liver fatty [8] | HepSE_Combined Scores [9] | HepSE_liver disease [10] | HepSE_hepatic necrosis [11] | HepSE_hepatitis [12] | HepSE_liver function tests abnormal [13] | HepSE_cirrhosis [14] | other results |
| --- | --- | --- | --- | --- | --- | --- | --- | --- | --- | --- | --- | --- | --- | --- | --- |
| C=CCC1(C(C)C#CCC)C(=O)N=C(O)N(C)C1=O (configuration not stated) [METHOHEXITAL] | 0 | 0 | 0 | 0 | 0 | 0 | 0 | 0 | 1 | 0 | 0 | 0 | 1 | 0 |  |
| CNCCC=C1c2ccccc2CCc2ccccc21 [NORTRIPTYLINE] |  |  |  |  |  |  |  |  |  |  |  |  |  |  | HepSE_jaundice ([1]; Liver): 1; HepSE_hepatic failure ([2]; Liver): 0; HepSE_cholelithiasis ([3]; Liver): 0; HepSE_bilirubinemia ([4]; Liver): 0; HepSE_cholecystitis ([5]; Liver): 0; HepSE_hepatomegaly ([6]; Liver): 0; HepSE_elevated liver function tests ([7]; Liver): 0; HepSE_liver fatty ([8]; Liver): 0; HepSE_Combined Scores ([9]; Liver): 3; HepSE_liver disease ([10]; Liver): 0; HepSE_hepatic necrosis ([11]; Liver): 1; HepSE_hepatitis ([12]; Liver): 1; HepSE_liver function tests abnormal ([13]; Liver): 0; HepSE_cirrhosis ([14]; Liver): 0 |
| O=C1CN=C(c2ccccc2)c2cc([N+](=O)[O-])ccc2N1 [NITRAZEPAM] | 0 | 0 | 0 | 0 | 0 | 0 | 0 | 0 | 0 | 0 | 0 | 0 | 0 | 0 |  |
| C[C@]12CCC(=O)C=C1CC[C@@H]1[C@@H]2C(=O)C[C@@]2(C)[C@H]1CC[C@]2(O)C(=O)CO [CORTISONE] | 0 | 0 | 0 | 0 | 0 | 0 | 0 | 0 | 0 | 0 | 0 | 0 | 0 | 0 |  |
| CC(=O)NS(=O)(=O)c1ccc(N)cc1 [SULFACETAMIDE] | 0 | 0 | 0 | 0 | 0 | 0 | 0 | 0 | 1 | 0 | 1 | 0 | 0 | 0 |  |
| N[C@@H](Cc1cc(I)c(Oc2cc(I)c(O)c(I)c2)c(I)c1)C(=O)O [LEVOTHYROXINE] | 0 | 0 | 0 | 0 | 0 | 0 | 0 | 0 | 0 | 0 | 0 | 0 | 0 | 0 |  |
| COC(=O)[C@@H]1CC2=CC(=O)CC[C@]2(C)[C@@]23O[C@@H]2C[C@@]2(C)[C@@H](CC[C@@]24CCC(=O)O4)[C@H]13 [EPLERENONE] | 0 | 1 | 0 | 0 | 0 | 0 | 0 | 0 | 1 | 0 | 0 | 0 | 0 | 0 |  |
| COc1cc(N)c(Cl)cc1C(=O)NC1CCN(CCCOc2ccc(F)cc2)CC1OC (configuration not stated) [CISAPRIDE] | 0 | 0 | 0 | 0 | 0 | 0 | 0 | 0 | 1 | 0 | 0 | 1 | 0 | 0 |  |
| CC1COc2c(N3CCN(C)CC3)c(F)cc3c(=O)c(C(=O)O)cn1c23 (configuration not stated) [OFLOXACIN] | 1 | 1 | 1 | 0 | 1 | 0 | 0 | 0 | 6 | 0 | 1 | 1 | 0 | 0 |  |
| SEVELAMER | 0 | 0 | 0 | 0 | 0 | 0 | 0 | 0 | 0 | 0 | 0 | 0 | 0 | 0 |  |
| CC(=O)OCC[N+](C)(C)C [ACETYLCHOLINE] |  |  |  |  |  |  |  |  |  |  |  |  |  |  | HepSE_jaundice ([1]; Liver): 0; HepSE_hepatic failure ([2]; Liver): 0; HepSE_cholelithiasis ([3]; Liver): 0; HepSE_bilirubinemia ([4]; Liver): 0; HepSE_cholecystitis ([5]; Liver): 0; HepSE_hepatomegaly ([6]; Liver): 0; HepSE_elevated liver function tests ([7]; Liver): 0; HepSE_liver fatty ([8]; Liver): 0; HepSE_Combined Scores ([9]; Liver): 0; HepSE_liver disease ([10]; Liver): 0; HepSE_hepatic necrosis ([11]; Liver): 0; HepSE_hepatitis ([12]; Liver): 0; HepSE_liver function tests abnormal ([13]; Liver): 0; HepSE_cirrhosis ([14]; Liver): 0 |
| CN(C)/N=N/c1[nH]cnc1C(N)=O [DACARBAZINE] | 0 | 0 | 0 | 0 | 0 | 0 | 0 | 0 | 0 | 0 | 0 | 0 | 0 | 0 |  |
| Oc1ccc(OCc2ccccc2)cc1 [MONOBENZONE] | 0 | 0 | 0 | 0 | 0 | 0 | 0 | 0 | 0 | 0 | 0 | 0 | 0 | 0 |  |
